How the values were obtained:
Trim47 −/− adult mice = test: Water maze behavioural test on adult mice with/without a diet with tBHQ; type: in vivo
Description: FIG. 4. TRIM47 is essential to brain physiology by promoting the NRF2 antioxidant protective system. […] B. RNA-sequencing was performed on HBMEC treated with control or TRIM47 siRNA. C. Assessment of blood brain barrier (BBB) permeability was done on Trim47 +/+ and Trim47 −/− adult mice. Mann-Whitney test. D. Representative image by immunofluorescence of GFAP expression (activated astrocytes) in brain sections from Trim47 +/+ and Trim47 −/− adult mice. E. Water maze behavioural test performed on adult mice with/without a diet with tBHQ. Two-way ANOVA with repeated measures. […] Latency to reach platform is shown for the 4 training days (FIG. 4E).

[1] = test system: Human brain microvascular endothelial cells (HBMEC); test: Cellrox Green detection of oxidative stress in HBMEC treated with control or TRIM47 siRNA and Luperox; type: cell-based; details: Luperox, pre-treatment with tBHQ
Description: Human brain microvascular endothelial cells (HBMEC) were treated with control or TRIM47 siRNA and with/without Luperox (inducer of oxidative stress) and incubated with Cellrox Green dye (detection of oxidative stress).

[2] = test system: Nrf2 and its target genes; test: qPCR screening of Nrf2 and its target genes on brain endothelial cells isolated from adult mice with/without tBHQ diet; type: in vivo
NRF2 = test: Rescue of the effect of TRIM47 knockdown by activation of NRF2 at the protein level (FIG. 3); type: cell-based, human; details: tBHQ stabilizing NRF2 protein
Excerpt: FIG. 3. […] Methods. TRIM47 interacting effectors were searched by proximity labeling assay (BioID) in human brain EC. TRIM47 knockdown in EC allowed to explore TRIM47 role in functional assays, and to identify transcriptional response by RNA-sequencing.

[3] = Trim47 KO mice, brain EC, +tBHQ diet (1% W/W, 1 month), mean of n = 5
[4] = Trim47 WT mice, brain EC, +tBHQ diet (1% W/W, 1 month), mean of n = 5

For `CC(C)(C)c1cc(O)ccc1O` [tBHQ, tert-butylhydroquinone], the “Cognitive impairment in water maze (latency to reach platform, 4 training days)” value (Trim47 −/− adult mice) was “prevent cognitive impairment”, the “Induction of oxidative stress (Cellrox Green dye)” value [1] was “reversed induction of oxidative stress” and the “Relative gene expression fold change (normalized to Pecam1): Cdh5 (BBB integrity)” value [2, 3] was 0.967. For the same compound, the “Relative gene expression fold change (normalized to Pecam1): Cldn5 (BBB integrity)” value [2, 3] was 0.877, the “Relative gene expression fold change (normalized to Pecam1): Cldn11 (BBB integrity)” value [2, 3] was 1.020 and the “Relative gene expression fold change (normalized to Pecam1): Gclm (Nrf2 pathway)” value [2, 3] was 1.009. For the same compound, the “Relative gene expression fold change (normalized to Pecam1): Hmox1 (Nrf2 pathway)” value [2, 3] was 1.095, the “Relative gene expression fold change (normalized to Pecam1): Keap1 (Nrf2 pathway)” value [2, 3] was 0.730 and the “Relative gene expression fold change (normalized to Pecam1): Me1 (Nrf2 pathway)” value [2, 3] was 1.148. The “Relative gene expression fold change (normalized to Pecam1): Nfe2l2 (Nrf2 pathway)” value [2, 3] was 1.040, the “Relative gene expression fold change (normalized to Pecam1): Nqo1 (Nrf2 pathway)” value [2, 3] was 1.084 and the “Relative gene expression fold change (normalized to Pecam1): Ocln (BBB integrity)” value [2, 3] was 0.895. The “Relative gene expression fold change (normalized to Pecam1): Slc7a11 (Nrf2 pathway)” value [2, 3] was 1.145, the “Relative gene expression fold change (normalized to Pecam1): Cdh5 (BBB integrity)” value [2, 4] was 1.013 and the “Relative gene expression fold change (normalized to Pecam1): Cldn5 (BBB integrity)” value [2, 4] was 1.071. The “Relative gene expression fold change (normalized to Pecam1): Cldn11 (BBB integrity)” value [2, 4] was 1.016, the “Relative gene expression fold change (normalized to Pecam1): Gclm (Nrf2 pathway)” value [2, 4] was 0.999 and the “Relative gene expression fold change (normalized to Pecam1): Hmox1 (Nrf2 pathway)” value [2, 4] was 1.033. The “Relative gene expression fold change (normalized to Pecam1): Keap1 (Nrf2 pathway)” value [2, 4] was 1.014, the “Relative gene expression fold change (normalized to Pecam1): Me1 (Nrf2 pathway)” value [2, 4] was 1.033 and the “Relative gene expression fold change (normalized to Pecam1): Nfe2l2 (Nrf2 pathway)” value [2, 4] was 1.007. For the same compound, the “Relative gene expression fold change (normalized to Pecam1): Nqo1 (Nrf2 pathway)” value [2, 4] was 1.033, the “Relative gene expression fold change (normalized to Pecam1): Ocln (BBB integrity)” value [2, 4] was 1.025 and the “Relative gene expression fold change (normalized to Pecam1): Slc7a11 (Nrf2 pathway)” value [2, 4] was 1.030. For the same compound, the “Relative gene expression fold change (normalized to Pecam1): Trim47” value [2, 4] was 1.066, the “Impairment of the Nrf2 pathway in Trim47 −/− mice (qPCR, brain endothelial cells)” value ([2]; Trim47 −/− adult mice, 1-month diet with tBHQ (1% W/W)) was “prevented” and the “Effect of TRIM47 knockdown (FIG. 3)” value (NRF2) was “partly rescues the effect of TRIM47 knockdown”.

— patent publication US20260053777A1, “USE OF NRF2 ACTIVATORS FOR THE TREATMENT OF CEREBRAL SMALL VESSEL DISEASE” (INSTITUT NATIONAL DE LA SANTÉ ET DE LA RECHERCHE MÉDICALE, priority 2022, published 2026)
